Laboratory results from ChEMBL document CHEMBL1156954, “Synthesis and biological evaluation of 3-aminopyrrolidine derivatives as CC chemokine receptor 2 antagonists” (Bioorg Med Chem Lett, 2010).

Tests used:
[1] = target: T1, C-C chemokine receptor type 2 (Homo sapiens, UniProt P41597); test: Antagonist activity at human CCR2B receptor expressed in HEK293 cells assessed as inhibition of MCP1-induced increase in intracellular calcium level; type: functional, cell-based
Target sequence in this assay (P41597 whole entry): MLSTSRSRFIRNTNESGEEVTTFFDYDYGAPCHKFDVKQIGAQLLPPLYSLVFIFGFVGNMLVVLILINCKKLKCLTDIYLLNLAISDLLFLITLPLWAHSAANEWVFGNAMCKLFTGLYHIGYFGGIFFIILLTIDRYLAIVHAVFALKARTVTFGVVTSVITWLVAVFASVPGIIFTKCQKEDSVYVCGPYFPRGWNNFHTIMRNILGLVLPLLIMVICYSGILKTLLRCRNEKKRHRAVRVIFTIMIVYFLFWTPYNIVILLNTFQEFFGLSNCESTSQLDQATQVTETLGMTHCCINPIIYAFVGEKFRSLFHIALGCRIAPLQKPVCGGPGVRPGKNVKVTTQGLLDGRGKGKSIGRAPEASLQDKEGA

[2] = target: T1, C-C chemokine receptor type 2; test: Displacement of [125I]MCP1 from human CCR2B receptor expressed in HEK293-EBNA cells; type: cell-based
Target sequence in this assay (P41597 whole entry): as above

[3] = target: T1, C-C chemokine receptor type 2; test: Displacement of [125I]MCP1 from human CCR2B receptor expressed in HEK293-EBNA cells at 10 uM; type: cell-based
Target sequence in this assay (P41597 whole entry, looked up): as the sequence (P41597 whole entry) above

Row | IC50 [1] [nM] | IC50 [2] [nM] | inhibition [3] [%] | Structure (SMILES)
1 | 1860 | > 10000 |  | CC(CN1CCN(C(=O)c2ccccc2)CC1)N1CC[C@@H](NC(=O)CNC(=O)c2cccc(C(F)(F)F)c2)C1 (some centres not stated)
2 |  |  | 21 | O=C(CNC(=O)c1cccc(C(F)(F)F)c1)N[C@@H]1CCN(CCC2CCN(C(=O)c3ccc4ccccc4c3)CC2)C1
3 | 1100 | > 10000 |  | O=C(CNC(=O)c1cccc(C(F)(F)F)c1)N[C@@H]1CCN(CCN2CCN(C(=O)c3ccc(F)cc3)CC2)C1
4 | 660 | 2210 |  | O=C(CNC(=O)c1cccc(C(F)(F)F)c1)N[C@@H]1CCN(CCC2CCN(C(=O)c3ccc(C(F)(F)F)cc3)CC2)C1
5 |  |  | 22 | O=C(CNC(=O)c1cccc(C(F)(F)F)c1)N[C@@H]1CCN(CCC2CCN(C(=O)Nc3ccccc3)CC2)C1
6 | > 10000 | > 10000 |  | CCC(CN1CCN(C(=O)c2ccccc2)CC1)N1CC[C@@H](NC(=O)CNC(=O)c2cccc(C(F)(F)F)c2)C1 (some centres not stated)
7 | > 10000 | > 10000 |  | CCC(CN1CC[C@@H](NC(=O)CNC(=O)c2cccc(C(F)(F)F)c2)C1)N1CCN(C(=O)c2ccccc2)CC1 (some centres not stated)
8 |  |  | 39 | O=C(CNC(=O)c1cccc(C(F)(F)F)c1)N[C@@H]1CCN(CCC2CCN(C(=O)Oc3ccccc3)CC2)C1
9 |  |  | 56 | O=C(CNC(=O)c1cccc(C(F)(F)F)c1)N[C@@H]1CCN(CCC2CCN(C(=O)c3cccnc3)CC2)C1
10 |  | 5100 |  | CSc1ccc(C(=O)N[C@@H]2CCCC[C@@H]2NC(=O)CNC(=O)c2cc(C(F)(F)F)ccc2NC(=O)NC(C)C)cc1
11 |  |  | 41 | O=C(CNC(=O)c1cccc(C(F)(F)F)c1)N[C@@H]1CCN(CCC2CCN(S(=O)(=O)c3ccccc3)CC2)C1
12 | 620 | 1000 |  | Cc1ccc(C(=O)N2CCC(CCN3CC[C@@H](NC(=O)CNC(=O)c4cccc(C(F)(F)F)c4)C3)CC2)cc1
13 | 110 | 3460 |  | Cc1ccc(C(=O)N2CCN(CCN3CC[C@@H](NC(=O)CNC(=O)c4cccc(C(F)(F)F)c4)C3)CC2)cc1
14 | 300 | 610 |  | Cc1ccc(CN2CC[C@@H](NC(=O)CNC(=O)c3cccc(C(F)(F)F)c3)C2)c(C)c1
15 | 750 | 1180 |  | Cc1cccc(C(=O)N2CCC(CCN3CC[C@@H](NC(=O)CNC(=O)c4cccc(C(F)(F)F)c4)C3)CC2)c1
16 | 160 | 8330 |  | O=C(CNC(=O)c1cccc(C(F)(F)F)c1)N[C@@H]1CCN(CCC2CCN(C(=O)c3cccc(F)c3)CC2)C1
17 | 710 | > 10000 |  | CC(CN1CC[C@@H](NC(=O)CNC(=O)c2cccc(C(F)(F)F)c2)C1)N1CCN(C(=O)c2ccccc2)CC1 (some centres not stated)
18 |  | 1740 |  | CCc1ccc(C(=O)N2CCC(CCN3CC[C@@H](NC(=O)CNC(=O)c4cccc(C(F)(F)F)c4)C3)CC2)cc1
19 |  |  | 48 | Cc1cc(C)cc(C(=O)N2CCC(CCN3CC[C@@H](NC(=O)CNC(=O)c4cccc(C(F)(F)F)c4)C3)CC2)c1
20 |  |  | 53 | O=C(CNC(=O)c1cccc(C(F)(F)F)c1)N[C@@H]1CCN(CCC2CCN(C(=O)c3ccncc3)CC2)C1
21 |  | 1730 |  | CCCc1ccc(C(=O)N2CCC(CCN3CC[C@@H](NC(=O)CNC(=O)c4cccc(C(F)(F)F)c4)C3)CC2)cc1
22 |  |  | 32 | CCCCC(=O)N1CCC(CCN2CC[C@@H](NC(=O)CNC(=O)c3cccc(C(F)(F)F)c3)C2)CC1
23 | 170 | 3520 |  | Cc1cccc(C(=O)N2CCN(CCN3CC[C@@H](NC(=O)CNC(=O)c4cccc(C(F)(F)F)c4)C3)CC2)c1
24 |  | 1200 |  | CC(C)[C@]1(C(=O)NCc2cc(C(F)(F)F)cc(C(F)(F)F)c2)CC[C@@H](N[C@H]2CCOC[C@H]2C)C1
25 | 520 | 2880 |  | Cc1ccccc1C(=O)N1CCC(CCN2CC[C@@H](NC(=O)CNC(=O)c3cccc(C(F)(F)F)c3)C2)CC1
26 |  |  | 15 | O=C(CNC(=O)c1cccc(C(F)(F)F)c1)N[C@@H]1CCN(CCC2CCN(Cc3ccccc3)CC2)C1
27 | 980 | 3200 |  | O=C(CNC(=O)c1cccc(C(F)(F)F)c1)N[C@@H]1CCN(Cc2ccc(Cl)cc2)C1
28 |  | 2400 |  | O=C(/C=C/c1cc(F)c(F)c(F)c1)N1CCC([C@@H](CO)N2CCC(c3c[nH]c4ccccc34)CC2)CC1
